# Results published in ChEMBL document CHEMBL1122606, “cis-4-[[[(2-Chloroethyl)nitrosoamino]carbonyl]methylamino] cyclohexanecarboxylic acid, a nitrosourea with latent activity against an experimental solid tumor” (J Med Chem, 1984).
# Key:
# Mus musculus = species: Mus musculus; experiment: Dose showing lethal effects on 10% of the mice bearing lewis lung tumors.; assay type: functional
# [1] = Half life period in phosphate buffer (pH 7.4); assay type: ADME
Compound,LD10 (Mus musculus) [mg/kg],half-life [1] [h]
O=NN(CCCl)C(=O)NC1CCC(C(=O)O)CC1 (centres undefined),26,46
CN(C(=O)N(CCCl)N=O)C1CCC(C(=O)O)CC1 (centres undefined),>400,4.5
